Data from PubChem BioAssay AID2060908 (Molecular Pharmacology Branch, DTP, NCI, 2025).

Tested on: 186277-243-T-J2-PDC complex spheroids, viability
Assay: Anticancer human tumor 186277-243-T-J2-PDC patient-derived colon adenocarcinoma cell line growth inhibition [RAS]
Settings: for IC50: curve of first compound; for viability, T/C: stronger effect = lower value
Method in brief: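 Agents were tested in combination matrices in half-log decrements from a top concentration at or near clinical Cmax (10 microM if undetermined). Targets were multi-cell spheroids of tumour lines plus HUVEC and MSC stromal cells.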

[1] = second compound 0.000949 µM, first compound 0.00316 µM
[2] = second compound 0.000949 µM, first compound 0.01 µM
[3] = second compound 0.000949 µM, first compound 0.0316 µM
[4] = second compound 0.000949 µM, first compound 0.1 µM
[5] = second compound 0.000949 µM, first compound 0.316 µM
[6] = second compound 0.000949 µM, first compound 1 µM
[7] = second compound 0.003 µM, first compound 0.00316 µM
[8] = second compound 0.003 µM, first compound 0.01 µM
[9] = second compound 0.003 µM, first compound 0.0316 µM
[10] = second compound 0.003 µM, first compound 0.1 µM
[11] = second compound 0.003 µM, first compound 0.316 µM
[12] = second compound 0.003 µM, first compound 1 µM
[13] = second compound 0.00949 µM, first compound 0.00316 µM
[14] = second compound 0.00949 µM, first compound 0.01 µM
[15] = second compound 0.00949 µM, first compound 0.0316 µM
[16] = second compound 0.00949 µM, first compound 0.1 µM
[17] = second compound 0.00949 µM, first compound 0.316 µM
[18] = second compound 0.00949 µM, first compound 1 µM
[19] = second compound 0.03 µM, first compound 0.00316 µM
[20] = second compound 0.03 µM, first compound 0.01 µM
[21] = second compound 0.03 µM, first compound 0.0316 µM
[22] = second compound 0.03 µM, first compound 0.1 µM
[23] = second compound 0.03 µM, first compound 0.316 µM
[24] = second compound 0.03 µM, first compound 1 µM
[25] = second compound 0.0949 µM, first compound 0.00316 µM
[26] = second compound 0.0949 µM, first compound 0.01 µM
[27] = second compound 0.0949 µM, first compound 0.0316 µM
[28] = second compound 0.0949 µM, first compound 0.1 µM
[29] = second compound 0.0949 µM, first compound 0.316 µM
[30] = second compound 0.0949 µM, first compound 1 µM
[31] = second compound 0.3 µM, first compound 0.00316 µM
[32] = second compound 0.3 µM, first compound 0.01 µM
[33] = second compound 0.3 µM, first compound 0.0316 µM
[34] = second compound 0.3 µM, first compound 0.1 µM
[35] = second compound 0.3 µM, first compound 0.316 µM
[36] = second compound 0.3 µM, first compound 1 µM
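Note: spheroids exposed to compounds for 7 days before viability read.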

Compound `C=CC(=O)Nc1cc(Nc2nccc(-c3cn(C)c4ccccc34)n2)c(OC)cc1N(C)CCN(C)C` + CCn1c(-c2cc(N3CCN(C)CC3)cnc2C(C)OC)c2c3cc(ccc31)-c1csc(n1)CC(NC(=O)C1CC1C)C(=O)N1CCCC(N1)C(=O)OCC(C)(C)C2 has an IC50 (second compound 0.000949 µM) greater than 1000 nM, an IC50 (second compound 0.003 µM) of 348 nM and an IC50 (second compound 0.00949 µM) of 10.9 nM. It also gave an IC50 (second compound 0.03 µM) of less than 3.16 nM, an IC50 (second compound 0.0949 µM) of less than 3.16 nM and an IC50 (second compound 0.3 µM) of less than 3.16 nM. It also gave a viability, T/C [1] of 103%, a viability, T/C [2] of 112% and a viability, T/C [3] of 107%. It also gave a viability, T/C [4] of 115%, a viability, T/C [5] of 85.2% and a viability, T/C [6] of 52.6%. For the same compound, the viability, T/C [7] was 106%, the viability, T/C [8] was 104% and the viability, T/C [9] was 91.8%. For the same compound, the viability, T/C [10] was 81.6%, the viability, T/C [11] was 52.3% and the viability, T/C [12] was 15.8%. It also gave a viability, T/C [13] of 58.3%, a viability, T/C [14] of 48.7% and a viability, T/C [15] of 40.6%. The viability, T/C [16] was 28.8%, the viability, T/C [17] was 10.8% and the viability, T/C [18] was 5.19%. It also gave a viability, T/C [19] of 18.4%, a viability, T/C [20] of 15.4% and a viability, T/C [21] of 12.1%. It also gave a viability, T/C [22] of 9.43%, a viability, T/C [23] of 5.63% and a viability, T/C [24] of 4.11%. The viability, T/C [25] was 7.42%, the viability, T/C [26] was 6.89% and the viability, T/C [27] was 5.88%. The viability, T/C [28] was 4.8%, the viability, T/C [29] was 4.22% and the viability, T/C [30] was 2.72%. The viability, T/C [31] was 6%, the viability, T/C [32] was 6% and the viability, T/C [33] was 4.87%. For the same compound, the viability, T/C [34] was 4.47%, the viability, T/C [35] was 4.17% and the viability, T/C [36] was 2.68%.

For `O=C(c1ccc(F)c(F)c1Nc1ccc(I)cc1F)N1CC(O)([C@@H]2CCCCN2)C1` + CCn1c(-c2cc(N3CCN(C)CC3)cnc2C(C)OC)c2c3cc(ccc31)-c1csc(n1)CC(NC(=O)C1CC1C)C(=O)N1CCCC(N1)C(=O)OCC(C)(C)C2, the IC50 (second compound 0.000949 µM) was 64 nM, the IC50 (second compound 0.003 µM) was 31.5 nM and the IC50 (second compound 0.00949 µM) was less than 3.16 nM. It also gave an IC50 (second compound 0.03 µM) of less than 3.16 nM, an IC50 (second compound 0.0949 µM) of less than 3.16 nM and an IC50 (second compound 0.3 µM) of less than 3.16 nM. For the same compound, the viability, T/C [1] was 92.7%, the viability, T/C [2] was 89.7% and the viability, T/C [3] was 83%. For the same compound, the viability, T/C [4] was 29.1%, the viability, T/C [5] was 8.1% and the viability, T/C [6] was 4.25%. For the same compound, the viability, T/C [7] was 114%, the viability, T/C [8] was 97.8% and the viability, T/C [9] was 47.8%. For the same compound, the viability, T/C [10] was 18.8%, the viability, T/C [11] was 6.27% and the viability, T/C [12] was 3.79%. It also gave a viability, T/C [13] of 43.6%, a viability, T/C [14] of 30.6% and a viability, T/C [15] of 13.6%. For the same compound, the viability, T/C [16] was 7.57%, the viability, T/C [17] was 4.59% and the viability, T/C [18] was 3.19%. It also gave a viability, T/C [19] of 14.9%, a viability, T/C [20] of 9.48% and a viability, T/C [21] of 6.73%. For the same compound, the viability, T/C [22] was 3.92%, the viability, T/C [23] was 3.2% and the viability, T/C [24] was 2.56%. It also gave a viability, T/C [25] of 6.07%, a viability, T/C [26] of 5.43% and a viability, T/C [27] of 4.04%. The viability, T/C [28] was 2.64%, the viability, T/C [29] was 2.57% and the viability, T/C [30] was 2.4%. The viability, T/C [31] was 5%, the viability, T/C [32] was 4.75% and the viability, T/C [33] was 2.99%. It also gave a viability, T/C [34] of 2.73%, a viability, T/C [35] of 2.91% and a viability, T/C [36] of 2.4%.
